We go through 58 molecules from ChEMBL document CHEMBL4706556, “Unraveling the anti-influenza effect of flavonoids: Experimental validation of luteolin and its congeners as potent influenza endonuclease inhibitors” (Eur J Med Chem, 2020).

pIC50, pKi: −log10 of the molar value. Structures can show the parent of a compound that is named as a salt. Calls of active or inactive are those of the source. No cut-off for these calls is given here.

The nature of experiment [1]: Inhibition of biotinylated 5-(4-((Z)-3-Carboxy-3-hydroxyacryloyl)-4-(4-chlorobenzyl)piperidine-1-carbonyl)-2-((13,35-dioxo-39-((3aR,4R,6aS)-2-oxohexahydro-1H-thieno[3,4-d]imidazole-4-yl)-3,6,9,16,19,22,25,28,31-nonaoxa-12,34-diazanonatriacontyl)oxy)benzoic acid binding to Influenza A virus (A/California/07/2009(H1N1)) N-terminal GST-tagged polymerase acidic subunit N-terminal domain expressed in Escherichia coli BL21 (DE3) RIL cells measured after 120 mins by Alphascreen assay. In general terms: In Alpha technology, singlet oxygen from a donor bead excites a nearby acceptor bead.

For experiment [2], the system named is Influenza A virus (A/California/07/2009(H1N1)). Briefly: Inhibition of endonuclease activity of Influenza A virus (A/California/07/2009(H1N1)) N-terminal GST-tagged polymerase acidic subunit N-terminal domain expressed in Escherichia coli BL21 (DE3) RIL cells using single-stranded circular DNA M13mp18 as substrate measured after 4 hrs by GelRed-staining based agarose gel electrophoresis.

The test system is the same in experiment [3]. As to the kind of experiment: Inhibition of Influenza A virus (A/California/07/2009(H1N1)) neuraminidase at 400 uM by DNA-linked inhibitor antibody assay.
The nature of experiment [4]: Inhibition of Influenza A virus (A/California/07/2009(H1N1)) neuraminidase by DNA-linked inhibitor antibody assay.
Experiment [5] relates to Influenza A virus (A/California/07/2009(H1N1)). Briefly: Inhibition of endonuclease activity of Influenza A virus (A/California/07/2009(H1N1)) N-terminal GST-tagged polymerase acidic subunit N-terminal domain expressed in Escherichia coli BL21 (DE3) RIL cells at 0.01 to 100 uM using single-stranded circular DNA M13mp18 as substrate measured after 4 hrs by GelRed-staining based agarose gel electrophoresis. Conditions: dose 0.01-100 µM.

Regarding `O=C(/C=C(O)/C=C/c1ccc(O)c(O)c1)/C=C/c1ccc(O)c(O)c1`, in experiment [1], the pIC50 (in general, −log10 of the IC50, conventionally taken in molar units) was 5.77. Further, in experiment [2], the inhibition result is “Active”. Further, the inhibition entry in experiment [3] is “inactive”. Regarding `O=C(/C=C(O)/C=C/c1ccc(O)cc1)/C=C/c1ccc(O)cc1`, the pIC50 in experiment [1] was less than 4.30. Same read-out and setting: as for `O=C1C=C(O)C(=O)c2c(O)c(O)cc(O)c21`, the figure is 6.37; as for `COc1cc(OC)c2c(=O)c(OC)c(-c3ccc(OC)c(OC)c3)oc2c1`, less than 4.30; as for `COc1cc(OC)c2c(=O)cc(-c3cc(OC)c(OC)c(OC)c3)oc2c1`, 5.74. The same measure, in the same setting: as for `O=c1cc(-c2ccc(O)c(O)c2)oc2ccccc12`, the figure is 5.62. The same measure, in the same setting: to `O=c1cc(-c2ccccc2O)oc2cc(O)cc(O)c12` belongs less than 4.30; to `O=c1cc(-c2ccc(O)c(O)c2)oc2cccc(O)c12`, 5.89.

Turning to `O=c1cc(-c2cccc(O)c2)oc2cc(O)cc(O)c12`, the pIC50 in experiment [1] is less than 4.30. For `O=C(O)/C(O)=C/C(=O)C1(Cc2ccc(Cl)cc2)CCN(Cc2ccccc2)CC1`, the figures for the pIC50 (in experiment [1]; with Influenza A virus) were 7.59 and 6.37, respectively. `COc1cc([C@@H]2[C@H]3CO[C@@]4(C)C(=O)[C@@H]2C=C([C@H]2Oc5cc(O)cc(O)c5C(=O)[C@@H]2O)[C@@H]34)ccc1O` showed a pIC50 in experiment [1] of less than 4.30. Regarding `O=c1cc(-c2ccc(O)c(O)c2)[nH]c2cc(O)cc(O)c12`, the inhibition entry in experiment [2] is “Active”.

For the molecule `O=C(c1ccc(O)c(O)c1)C1(O)Oc2cc(O)cc(O)c2C1=O` (stereo not drawn), the pIC50 in experiment [1] was 5.01.

Consider `O=c1c(O)c(-c2ccc(O)c(O)c2)[nH]c2cc(O)cc(O)c12`, for which the negative-log IC50 (pIC50) in experiment [1] is 6.70.

In experiment [1], `CCCCC(=O)C1=C(O)C(=O)c2c(O)c(O)cc(O)c2C1=O` showed a pIC50 of 6.54. In experiment [2], the inhibition entry was “Active”. In addition, in experiment [3], the inhibition result was “inactive”. Consider `O=C(NC(O)C(=O)O)c1ccccc1` (stereo not drawn), for which, in experiment [1], the pIC50 was less than 4.30.

Molecule `O=c1cc(-c2cccc(O)c2O)oc2cc(O)cc(O)c12` had a pIC50 in experiment [1] of 4.77. `O=c1cc(-c2cccc(O)c2)oc2cccc(O)c12`: the negative-log IC50 (pIC50) in experiment [1] was less than 4.30. Still for that read-out and setting: to `C[C@@H]1O[C@@H](Oc2c(-c3cc(O)c(O)c(O)c3)oc3cc(O)cc(O)c3c2=O)[C@H](O)[C@H](O)[C@H]1O` belongs 5.74; to `O=C1c2c(O)cc(O)cc2O[C@H](c2ccc(O)c(O)c2)[C@H]1O` [(+)-TAXIFOLIN], 4.30; to `Oc1cc(O)c2c(c1)O[C@@H](c1ccc(O)c(O)c1)[C@H](O)C2` [(-)-CATECHIN], less than 4.30.

Take `Oc1cc(O)c2c(c1)O[C@H](c1ccc(O)c(O)c1)[C@H](O)C2` [(-)-EPICATECHIN]: in experiment [1], the pIC50 was less than 4.30. Regarding `O=C1c2c(O)cc(O)cc2O[C@H](c2cc(O)c(O)c(O)c2)[C@H]1O` [AMPELOPSIN], the pIC50 in experiment [1] was 4.66. Still for that read-out and setting: to `O=c1cc(-c2ccc(O)cc2)oc2cc(O)cc(O)c12` [APIGENIN] belongs less than 4.30; to `O=C1c2c(O)c(=O)ccn2N([C@@H]2c3ccccc3SCc3c2ccc(F)c3F)[C@@H]2COCCN12` [BALOXAVIR], 7.62. Take `O=C(/C=C/c1ccc(O)c(O)c1)O[C@@H]1C[C@](O)(C(=O)O)C[C@@H](O)[C@H]1O` [CHLOROGENIC ACID]: the pIC50 in experiment [1] is less than 4.30. Besides, the inhibition entry in experiment [3] was “inactive”. `Oc1cc(O)c2c(c1)O[C@H](c1ccc(O)c(O)c1)[C@@H](O)C2` [CIANIDANOL] had a pIC50 in experiment [1] of 4.38. Still for that read-out and setting: as for `COc1cc(/C=C/C(=O)CC(=O)/C=C/c2ccc(O)c(OC)c2)ccc1O` [CURCUMIN], the figure is 4.60; as for `COc1ccc(/C=C/C(=O)/C=C(O)/C=C/c2ccc(OC)c(OC)c2)cc1OC` [DIMETHYLCURCUMIN], less than 4.30. Same read-out and setting: to `COc1ccc(-c2cc(=O)c3c(O)cc(O)cc3o2)cc1O` [DIOSMETIN] belongs less than 4.30. Same read-out and setting: to `Oc1cc(O)c2c(c1)O[C@H](c1cc(O)c(O)c(O)c1)[C@H](O)C2` [EPIGALLOCATECHIN] belongs 5.48. `O=C(O[C@@H]1Cc2c(O)cc(O)cc2O[C@@H]1c1cc(O)c(O)c(O)c1)c1cc(O)c(O)c(O)c1` [EPIGALOCATECHIN GALLATE] gave a pIC50 in experiment [1] of 6.06. In addition, the inhibition result in experiment [2] was “Active”. For the same molecule, in experiment [3], the inhibition entry is “inactive”.

In the case of `O=C1C[C@@H](c2ccc(O)c(O)c2)Oc2cc(O)cc(O)c21` [ERIODICTYOL], the pIC50 in experiment [1] was 4.74. As for `COc1c(O)cc2oc(-c3ccc(O)c(O)c3)cc(=O)c2c1O` [EUPAFOLIN], the pIC50 in experiment [1] was 6.03. Take `Oc1ccc(C2CNCCc3c2cc(O)c(O)c3Cl)cc1` (stereo not drawn) [FENOLDOPAM MESYLATE]: the pIC50 in experiment [1] is 4.51. With `O=c1c(O)c(-c2ccc(O)c(O)c2)oc2cc(O)ccc12` [FISETIN], the pIC50 in experiment [1] was 6.02.

In experiment [1], `O=c1cc(-c2ccc(O)c(O)c2)oc2cc(O[C@@H]3O[C@H](CO)[C@@H](O)[C@H](O)[C@H]3O)cc(O)c12` [GALUTEOLIN] gave a pIC50 of 4.49. Still for that read-out and setting: as for `O=c1c(-c2ccc(O)cc2)coc2cc(O)cc(O)c12` [GENISTEIN], the figure is less than 4.30. On the same count and under the same terms, as for `Cc1cc2c(C(C)C)c(O)c(O)c(C=O)c2c(O)c1-c1c(C)cc2c(C(C)C)c(O)c(O)c(C=O)c2c1O` [GOSSYPOL], the figure is 4.89; as for `O=c1c(O[C@@H]2OC[C@H](O)[C@H](O)[C@H]2O)c(-c2ccc(O)c(O)c2)oc2cc(O)cc(O)c12` [GUAJAVERIN], 4.77. Still for that read-out and setting: to `O=c1cc(-c2ccc(O)c(O)c2)oc2cc(O)c([C@@H]3O[C@H](CO)[C@@H](O)[C@H](O)[C@H]3O)c(O)c12` [ISOORIENTIN] belongs less than 4.30. As to `O=c1c(O)c(-c2ccc(O)cc2)oc2cc(O)cc(O)c12` [KAEMPFEROL], the pIC50 in experiment [1] is 4.80. Same read-out and setting: as for `CC(C)=CCC1=C(O)C(=O)c2ccccc2C1=O` [LAPACHOL], the figure is 4.72.

In experiment [1], `O=c1cc(-c2ccc(O)c(O)c2)oc2cc(O)cc(O)c12` [LUTEOLIN] showed a pIC50 of 7.14. The inhibition result in experiment [2] was “Active”. Also, the inhibition result in experiment [3] is “inactive”.

In the case of `O=c1c(O)c(-c2ccc(O)cc2O)oc2cc(O)cc(O)c12` [MORIN], the pIC50 in experiment [1] is 5.05. The molecule `O=c1c(O)c(-c2cc(O)c(O)c(O)c2)oc2cc(O)cc(O)c12` [MYRICETIN] had a negative logarithm of the IC50 (pIC50) in experiment [1] of 6.12. In experiment [2], the inhibition entry was “Active”. Further, the inhibition entry in experiment [3] was “inactive”. In experiment [1], `CCn1cc(C(=O)O)c(=O)c2ccc(C)nc21` [NALIDIXIC ACID] had a pIC50 of less than 4.30. `O=C1N[C@@H]2C(=C[C@H](O)[C@@H](O)[C@H]2O)c2cc3c(c(O)c21)OCO3` [NARCICLASINE] showed a pIC50 in experiment [1] of less than 4.30.

`O=c1cc(-c2ccc(O)c(O)c2)oc2c([C@@H]3O[C@H](CO)[C@@H](O)[C@H](O)[C@H]3O)c(O)cc(O)c12` [ORIENTIN]: in experiment [1], the pIC50 was 7.37. For the molecule `CCC(CC)O[C@@H]1C=C(C(=O)O)C[C@H](N)[C@H]1NC(C)=O` [OSELTAMIVIR CARBOXYLATE], the pKi (in general, −log10 of the Ki, conventionally taken in molar units) in experiment [4] is 7.41. For `O=c1c(O)cccc2cc(O)c(O)c(O)c12` [PURPUROGALLIN], the pIC50 in experiment [1] was 5.82. In experiment [1], `O=c1c(O)c(-c2ccc(O)c(O)c2)oc2cc(O)cc(O)c12` [QUERCETIN] gave a pIC50 of 6.17. Also, the inhibition result in experiment [5] is “Active”. Moreover, the inhibition result in experiment [3] is “inactive”. As to `COc1cc(O)c2c(=O)c(OC)c(-c3ccc(OC)c(OC)c3)oc2c1` [RETUSIN], the pIC50 in experiment [1] is less than 4.30.

Consider `COc1cc([C@@H]2Oc3c(O)cc([C@H]4Oc5cc(O)cc(O)c5C(=O)[C@@H]4O)cc3[C@H]2CO)ccc1O` [SILICRISTIN A], for which the pIC50 in experiment [1] is less than 4.30.

In the case of `COc1cc([C@H]2Oc3cc([C@H]4Oc5cc(O)cc(O)c5C(=O)[C@@H]4O)ccc3O[C@@H]2CO)ccc1O` [SILYBIN A], the pIC50 in experiment [1] was less than 4.30. On the same count and under the same terms, to `O=c1oc(-c2ccc(O)c(O)c2)cc2cccc(O)c12` [THUNBERGINOL A] belongs 5.85; to `O=c1cc(-c2cc(O)c(O)c(O)c2)oc2cc(O)cc(O)c12` [TRICETIN], 6.80. On to `O=c1cc(-c2ccc(O)cc2)oc2c([C@@H]3O[C@H](CO)[C@@H](O)[C@H](O)[C@H]3O)c(O)cc(O)c12` [VITEXIN], for which the pIC50 in experiment [1] is 5.72. The inhibition result in experiment [3] was “inactive”.
